Active and inactive are the calls of the source.
What was measured:
Assay type in all cases: functional, organism-based
[1] = test system: Escherichia coli; assay: Antimicrobial activity against Escherichia coli at 50 ug/disk after 24 hrs by disk diffusion method
[2] = test system: Candida albicans; assay: Antimicrobial activity against Candida albicans at 50 ug/disk after 48 hrs by disk diffusion method
[3] = test system: Bacillus subtilis; assay: Antimicrobial activity against Bacillus subtilis at 50 ug/disk after 24 hrs by disk diffusion method
[4] = test system: Staphylococcus aureus; assay: Antimicrobial activity against Staphylococcus aureus at 50 ug/disk after 24 hrs by disk diffusion method
[5] = test system: Fusarium verticillioides; assay: Antimicrobial activity against Fusarium verticillioides at 100 ug/disk after 48 hrs by disk diffusion method
[6] = test system: Bacillus subtilis; assay: Antimicrobial activity against Bacillus subtilis at 100 ug/disk after 24 hrs by disk diffusion method
[7] = test system: Staphylococcus aureus; assay: Antimicrobial activity against Staphylococcus aureus at 100 ug/disk after 24 hrs by disk diffusion method
[8] = test system: Aspergillus flavus; assay: Antimicrobial activity against Aspergillus flavus at 100 ug/disk after 48 hrs by disk diffusion method
[9] = test system: Escherichia coli; assay: Antimicrobial activity against Escherichia coli at 100 ug/disk after 24 hrs by disk diffusion method
[10] = test system: Candida albicans; assay: Antimicrobial activity against Candida albicans at 100 ug/disk after 48 hrs by disk diffusion method

Measured: Activity

CC[C@@](C)(C(=O)CCO)C1=CC(=O)[C@@H](C)[C@H](C)O1
inactive: [1] | [2] | [3] | [4]

CCC(C)C(=O)[C@@H]1CO[C@@H](C)[C@@H](C)[C@H]1CO (mixture of isomers)
inactive: [5] | [6] | [7] | [8] | [9] | [10]

C[C@H](C(=O)[C@H]1CO[C@@]2(C)OC[C@@H]1[C@@H]2C)[C@@H](C)O
inactive: [5] | [6] | [7] | [8] | [9] | [10]

CC[C@H](C)C(=O)[C@H]1[C@H](CO)[C@H](C)[C@H](C)O[C@@H]1O
inactive: [5] | [6] | [7] | [8] | [9] | [10]

C[C@H]1[C@H]2[C@H](OC[C@@H]2C(=O)[C@@H](C)[C@@H](C)O)O[C@H]1C
inactive: [5] | [6] | [7] | [8] | [9] | [10]

CC[C@@](C)(C(=O)CCO)C1=CC(=O)[C@H](C)[C@H](C)O1
inactive: [1] | [2] | [3] | [4]

Source: ChEMBL document CHEMBL3813602, “Disseminins and Spiciferone Analogues: Polyketide-Derived Metabolites from a Fungicolous Isolate of Pestalotiopsis disseminata” (J Nat Prod, 2016)
